Reference: publication PMC11546786, “Designing Analogs of SAAP-148 with Enhanced Antimicrobial and Anti-LPS Activities” (International Journal of Molecular Sciences, 2024)
Ends that are not written are not given here.

Tests used:
[1] = Reversed-phase HPLC retention time as measure of peptide hydrophobicity; format: physicochemical; conditions: retention time by reverse-phase HPLC, reflects hydrophobicity difference between analogues
[2] = system: human erythrocytes versus five bacterial strains; experiment: Therapeutic index (MHC/GM of MIC)
How it was run: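 MHC reflects hemolytic activity on erythrocytes, and GM is the geometric mean of the MIC values across the five strains. The TI is their ratio, and larger values denote greater antimicrobial specificity.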

E. coli = experiment: Membrane damage, PI staining and flow cytometry; format: cell-based, Escherichia coli; conditions: 6.25 μM peptide, 30 min
Experimental: Propidium iodide (PI) was utilized as a marker for assessing the structural integrity of cell membranes and the occurrence of cell death. The impact of peptides on BEAS-2B cells, E. coli, and S. aureus was investigated by treating the cells with peptides followed by PI staining and flow cytometry (FACS) analysis to evaluate peptide-induced membrane damage. Table 5 presents the results of PI staining in BEAS-2B cells (1 × 10^6) following treatment with peptides at a concentration of 6.25 μM. […] FACS analysis at a peptide concentration of 6.25 μM was employed to determine the membrane damage caused by peptides in E. coli and S. aureus cells (Table 5).
Peptide-induced membrane damage was evaluated by quantifying the influx of propidium iodide (PI). BEAS-2B cells (1 × 10^6 cells in 50 μL) were exposed to a final concentration of 6.25 μM peptide and incubated at 37 °C for 30 min, followed by PBS washing and re-suspension in PI solution (dissolved in PBS) at a final concentration of 2 μg/mL. Bacteria were cultured to mid-log phase at 37 °C, then diluted to an OD600 of 0.5 in phosphate-buffered saline (PBS). […] The bacteria were harvested and re-suspended in PI solution, with fluorescence signal analysis conducted using flow cytometry (Cytomics FC 500, Beckman Coulter, Indianapolis, IN, USA).

[3] = CD spectra, secondary structure by BeStSel; format: physicochemical; conditions: 30 μM SDS as printed, 100 μM peptide, 25 °C
How it was run: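 Far-UV CD spectra (190–250 nm) of peptides at 100 μM in SDS, 0.1 cm cells, 25 °C under nitrogen. Secondary-structure content derived from spectra by BeStSel deconvolution.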

Q: For LKRVWKRVFKLKKRYWRQLKKPVR-NH2 [SAAP-7], which “Rt” value [1] is on record?
A: The value was 12.897 min.

Q: And the “Fold (TI of analogue compared with SAAP-148)” value ([2]; TI change relative to SAAP-148)?
A: Its value is 55.09.

Q: And the “TI (MHC/MIC)” value ([2]; ratio of MHC to geometric mean of MIC (five strains))?
A: Its value is 6.06.

Q: What about the “percentage of PI-positive cells, E. coli” value (E. coli) of the same substance?
A: Its value is 34.9%.

Q: And the Others [3]?
A: Its Others is 3.4%.

Q: And the Turn [3]?
A: Its Turn is 0%.

Q: What about the α-Helix [3] of the same substance?
A: The α-Helix was 48.3%.

Q: And the β-Antiparallel [3]?
A: Its β-Antiparallel is 48.3%.

Q: What about the β-Parallel [3] of the same substance?
A: Its β-Parallel is 0%.
